According to ChEMBL document CHEMBL1142439 (Bioorg Med Chem, 2008):
pEC50: −log10 of the molar value. Activity calls are given as the source filed them. The calls are words filed in the database; no cut-off is given here.

Legend:
[1] = target: D(1A) dopamine receptor (Homo sapiens, UniProt P21728); assay: Agonist activity at human recombinant dopamine D1 receptor expressed in CHO cells assessed as stimulation of cAMP production; type: functional, cell-based
[2] = target: D(2) dopamine receptor (Homo sapiens, UniProt P14416); assay: Agonist activity at human dopamine D2 receptor expressed in CHO cells assessed as inhibition of forskolin-stimulated cAMP production; type: functional, cell-based
D(2) dopamine receptor, sequence (P14416 whole entry): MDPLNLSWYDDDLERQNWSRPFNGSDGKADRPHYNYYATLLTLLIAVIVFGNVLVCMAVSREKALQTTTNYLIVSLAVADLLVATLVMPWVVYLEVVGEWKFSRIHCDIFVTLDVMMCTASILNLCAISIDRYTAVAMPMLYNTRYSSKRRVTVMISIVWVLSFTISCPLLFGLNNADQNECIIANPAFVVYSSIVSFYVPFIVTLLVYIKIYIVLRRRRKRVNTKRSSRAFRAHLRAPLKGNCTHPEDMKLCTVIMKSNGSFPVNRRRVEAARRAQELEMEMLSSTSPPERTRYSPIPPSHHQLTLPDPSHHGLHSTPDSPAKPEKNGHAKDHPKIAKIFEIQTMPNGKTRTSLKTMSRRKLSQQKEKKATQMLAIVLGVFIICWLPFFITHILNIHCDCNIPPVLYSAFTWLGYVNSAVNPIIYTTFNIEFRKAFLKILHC

[3] = tested on: Rattus norvegicus; assay: Decrease in dopamine release in Wistar rat striatal at 1 nmol/kg, sc after 90 mins; type: functional; design: scale not given: the % may be the effect or the level left
[4] = tested on: Rattus norvegicus; assay: Decrease in dopamine release in Wistar rat striatal at 10 nmol/kg, sc after 90 mins; type: functional; design: scale not given: the % may be the effect or the level left
[5] = tested on: Rattus norvegicus; assay: Decrease in dopamine release in Wistar rat striatal at 1 nmol/kg, sc after 6 hrs; type: functional; design: scale not given: the % may be the effect or the level left
[6] = tested on: Rattus norvegicus; assay: Decrease in dopamine release in Wistar rat striatal at 100 nmol/kg, po after 45 mins; type: functional; design: scale not given: the % may be the effect or the level left
[7] = tested on: Rattus norvegicus; assay: Induction of locomotor activity in Wistar rat at 10 nmol/kg, sc; type: functional, organism-based
[8] = tested on: Rattus norvegicus; assay: Induction of penile grooming in Wistar rat at 10 nmol/kg, sc; type: functional, organism-based
[9] = tested on: Rattus norvegicus; assay: Induction of yawning in Wistar rat at 10 nmol/kg, sc; type: functional, organism-based
[10] = tested on: Rattus norvegicus; assay: Induction of sniffing in Wistar rat at 10 nmol/kg, sc; type: functional, organism-based
[11] = tested on: Rattus norvegicus; assay: Induction of rearing grooming in Wistar rat at 10 nmol/kg, sc; type: functional, organism-based

D(1A) dopamine receptor, sequence (P21728 whole entry): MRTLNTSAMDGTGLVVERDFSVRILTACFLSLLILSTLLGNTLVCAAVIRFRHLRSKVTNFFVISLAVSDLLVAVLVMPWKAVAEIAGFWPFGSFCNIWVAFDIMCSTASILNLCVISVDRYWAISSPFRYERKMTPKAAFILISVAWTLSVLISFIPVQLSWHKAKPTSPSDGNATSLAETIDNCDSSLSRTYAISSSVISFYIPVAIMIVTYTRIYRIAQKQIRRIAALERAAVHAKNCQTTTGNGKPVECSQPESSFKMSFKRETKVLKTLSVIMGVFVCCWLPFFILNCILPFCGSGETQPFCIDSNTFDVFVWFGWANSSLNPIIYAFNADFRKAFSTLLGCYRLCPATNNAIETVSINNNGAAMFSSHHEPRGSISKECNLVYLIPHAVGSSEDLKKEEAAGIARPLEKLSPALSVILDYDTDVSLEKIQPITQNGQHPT

SMILES: CCCN1CCC[C@@H]2Cc3c(ccc(O)c3O)C[C@H]21
- pEC50 [1]: 7.60
- pEC50 [2]: 9.19
- Activity [3]: 20%
- Activity [4]: 30%
- Activity [5]: 30%
- Activity [6]: 40%
- Activity [7]: Active
- Activity [8]: Active
- Activity [9]: Active
- Activity [10]: Active
- Activity [11]: Active
